Source: paper PMC12119672, “Development and evaluation of [^11C]DPA-813 and [^18F]DPA-814: novel TSPO PET tracers insensitive to human single nucleotide polymorphism rs6971” (European Journal of Nuclear Medicine and Molecular Imaging, 2025)
Several values for one entry are separate records, joined by “and”; a condition that tells them apart may be missing. Equal values may be shown once.

Legend:
[1] = system: EAE rat model (spinal cord); assay: PET imaging in the EAE rat model; type: in vivo; conditions: for higher difference EAE vs control compared with the fluorinated compound: [11C]DPA-813 vs [18F]DPA-814, [11C]DPA-713 vs [18F]DPA-714; for higher uptake (AUC of time activity curve) in the spinal cord of EAE rats compared to CFA control: dynamic PET 60 min, peak of clinical symptoms
TSPO in human MS tissues = assay: Autoradiography on genotyped human MS brain tissue (HAB, MAB, LAB); type: binding
Excerpt: Brain tissues from MS patients (n = 7) were used in this study and were obtained from the MS centre of the Amsterdam University Medical Centers (AUMC). For some patient material, several brain tissues were available. The MS centre received permission from the Ethical Committee of the AUMC (Amsterdam, The Netherlands) to perform autopsies for tissue use and access to medical records for research purposes. All patients and controls, or their next of kin, had given informed consent for autopsy and use of brain tissue for research purposes.
TSPO rs6971 SNP was determined with a Taqman assay (C_2512465_20, ThermoFisher Scientific, The Netherlands). DNA was isolated from human MS brain tissue cryosections using a QIAmp mini kit from Qiagen according to the manufacturer’s recommendation. The concentration of the isolated DNA was determined on a nanodrop (NanoVue Plus, Biochrom). DNA concentration ranged from 45 to 246 µg/mL. QPCR was performed on a QuantStudio (Applied Biosystems, The Netherlands). Synthetic DNA (300 bp) for the two TSPO SNP alleles, rs6971-A, and rs6971-G, was used as a control for the Taqman assay. DNA samples were diluted 1/100 in milliQ water, and 4.5 µL was used for the QPCR. Control DNA sequences were reconstituted in 10 ng/mL in milliQ water. The final QPCR solution contained 5 µL TaqPath proAmp master mix (ThermoFisher Scientific, The Netherlands), 0.5 µL Taqman SNP, and 4.5 µL DNA. Results of the Taqman assay are summarised in Supplementary Tables 4 and Supplementary Fig. 2.
Human MS tissue cryosections (20 μm) were mounted on glass slides, air-dried, and stored at − 80 °C until needed. Prior to use, the sections were washed three times in PBS for 5 min each, then dried under an airflow. […] For blocking experiments, tissue sections were co-incubated with PK 11195 (10 µM) and the tracer. After incubation, sections were washed for 90 s three times each in ice-cold PBS and then dipped in deionized water twice. The sections were air-dried and exposed to a phosphor screen BAS-IP SR 2025 (General Electric, Eindhoven, The Netherlands). Phosphor screens were subsequently imaged using a Typhoon FLA 7000 imager (General Electric, Eindhoven, The Netherlands), and signal intensity was quantified using ImageLab software (BioRad, Lunteren, The Netherlands).

rat TSPO = target: T1, rat TSPO (Rattus norvegicus, UniProt P16257); assay: Competitive binding to rat TSPO vs [3H]PK 11195 (Eurofins assay #226700, rat heart membranes); conditions: vs DPA-713 / DPA-714
T1 construct: Heart of male Wistar derived rats weighing 175 ± 25 g are used to prepare peripheral benzodiazepine membrane receptors [TSPO]; tissue Eurofins Panlabs Discovery Services assay #226700; host or cells: rat heart (male Wistar derived)
Protocol: Binding affinities (Ki) to wild-type (WT) and A147T human TSPO were assessed using a previously published method. HEK-293T cells were stably transfected with WT and A147T TSPO. Membranes were isolated from each cell line using an Ultra-Turrax hand-held homogeniser. These cells have been previously validated as an in vitro model for low- and high-affinity TSPO binding. […] Non-specific binding was determined using a saturating concentration (1 µM) of non-tritiated PK 11195. This non-specific binding contributed less than 10% of total binding. Reactions were halted by filtering through a 96-well glass-fibre filter plate (Millipore), followed by eight washes with ice-cold 50 mM Tris HCl. Microscint 0 was added to the plate and resultant radioactivity-related photons were collected by a Microbeta 2450 (PerkinElmer). Ki values were fit to a competition binding curve fit on non-specific binding-corrected data using GraphPad Prism 10.0 (GraphPad). Results are presented as mean ± standard error of the mean (SEM) from at least three independent experiments. Binding affinities (Ki) to rat TSPO were measured in duplicate by Eurofins Panlabs Discovery Services (assay #226700) (Supplementary Fig. 12). Single-dose (10 µM) off-target in vitro screening was performed in duplicate by Eurofins Panlabs Discovery Services (Supplementary Table 5).
Supplementary Figure 12 Dose-response curves and binding affinities of DPA-813 and DPA-814 showing competitive binding to rat TSPO vs [^3H]PK 11195. Method from Eurofins: Heart of male Wistar derived rats weighing 175 ± 25 g are used to prepare peripheral benzodiazepine membrane receptors [TSPO] in modified Tris-HCl buffer pH 7.5. A 0.25 mg aliquot is incubated with 0.3 nM [^3H]PK 11195 for 15 minutes at 25 °C. Non-specific binding is estimated in the presence of 100 μM Dipyridamole. Membranes are filtered and washed, the filters are then counted to determine [^3H]PK 11195 specifically bound.

[2] = Ex vivo biodistribution in wild-type rats; design: species or system rat; conditions: i.v.
Protocol: Wistar/RccHan (WIST) rats from Inotiv, the Netherlands, received intravenous injections via a tail vein catheter of either [^11C]DPA-813 (30–50 MBq) or [^18F]DPA-814 (20–30 MBq). The rats were euthanized at 5, 15, and 45 min post-injection (n = 4 per time point). Blood, heart, lungs, liver, spleen, kidney, urine, bone, brain, duodenum, small intestine, skin, and muscle were collected, weighed, and their radioactivity measured using a Wizard Gamma counter 1470 or 2480 (Wallac/PerkinElmer, Waltham, MA, USA). Entire organs were collected, except for larger organs like the liver and lungs, where only a portion was dissected. The radioactivity uptake in each organ was expressed as the percentage of the injected dose per gram of tissue (%ID/g).

[3] = Ex vivo metabolite analysis (plasma and brain) in wild-type rats; design: species or system rat; conditions: i.v.
Protocol: Metabolite analysis was conducted following the method outlined in a previous study. Wistar/RccHan (WIST) rats (Inotiv, the Netherlands) received intravenous injections of either [^11C]DPA-813 (30–50 MBq) or [^18F]DPA-814 (20–30 MBq). Rats were euthanized at 5, 15, and 45 min post-injection (n = 4 per time point). Plasma was separated from blood then processed through a C18 Sep-Pak (Waters, Milford, MA, USA). After washing with 3 mL of water to isolate the polar fraction, the non-polar fraction was eluted using 2 mL of methanol and 1 mL of water and subsequently analyzed by HPLC. The brain tissue was collected and homogenized in a mixture of MeCN and H2O (50/50, 4 mL) before centrifugation (5 min, 4000 rpm, 20 °C, Hettich Universal 32). The obtained supernatant was separated from the precipitate and analyzed via HPLC. Analytical HPLC was performed using a Dionex UltiMate 3000 HPLC system equipped with Chromeleon software (version 6.8), utilizing a Gemini C18 5-µm (10 × 250 mm) column (Phenomenex, Torrance, CA, USA). All fractions were assessed for radioactivity using a Wizard Gamma counter 1470 or 2480 (Wallac/PerkinElmer, Waltham, MA, USA).

In the case of `CCN(CC)C(=O)Cc1c(-c2ccc(O[11CH3])cc2)nn2c(C)cc(C)nc12` [[^11C]DPA-713, reference compound], the “higher difference EAE vs control compared with the fluorinated compound” value [1] is reported as 2.5 folds and the “higher uptake (AUC of time activity curve) in the spinal cord of EAE rats compared to CFA control” value (shortened to “higher uptake … compared to CFA control”) [1] is reported as 67%.
For `Cc1cc(C)n2nc(-c3ccc(O[11CH3])cc3)c(CC(=O)N(C)c3ccccc3)c2n1` [[^11C]DPA-813], the “ratio of the binding quantification [11C]DPA-813/[11C]DPA-713” value (“ratio of the binding quantification” for short) (TSPO in human MS tissues; HAB human MS tissue) was 1 ± 0.2, the “ratio of the binding quantification” value (TSPO in human MS tissues; LAB human MS tissue) was 3 and the “ratio of the binding quantification” value (TSPO in human MS tissues; MAB human MS tissue) was 1.6 ± 0.1. The “higher affinity to rat TSPO compared to the parent compound” value (rat TSPO) was 24 fold, the “higher difference EAE vs control compared with the fluorinated compound” value [1] was 3 folds and the “higher uptake … compared to CFA control” value [1] was 64%. For the same compound, the “Biodistribution, Blood” value ([2]; 5 min post-injection) was 0.31 ± 0.1 %ID/g, the “Biodistribution, Bone” value ([2]; 5 min post-injection) was 0.28±0.1 %ID/g and the “Biodistribution, Brain” value ([2]; 5 min post-injection) was 0.41 ± 0.1 %ID/g. For the same compound, the “Biodistribution, Duodenum” value ([2]; 5 min post-injection) was 1.44±0.2 %ID/g, the “Biodistribution, Heart” value ([2]; 5 min post-injection) was 3.70±0.5 %ID/g and the “Biodistribution, Kidney” value ([2]; 5 min post-injection) was 3.80±0.5 %ID/g. The “Biodistribution, Liver” value ([2]; 5 min post-injection) was 1.42±0.4 %ID/g, the “Biodistribution, Lungs” value ([2]; 5 min post-injection) was 29.84±3. %ID/g and the “Biodistribution, Skin” value ([2]; 5 min post-injection) was 0.09±0.1 %ID/g. The “Biodistribution, Small intestine” value ([2]; 5 min post-injection) was 1.04±0.4 %ID/g, the “Biodistribution, Tail” value ([2]; 5 min post-injection) was 1.30±0.6 %ID/g and the “Biodistribution, Urine” value ([2]; 5 min post-injection) was 0.03±0.0 %ID/g. For the same compound, the “Biodistribution, muscle” value ([2]; 5 min post-injection) was 0.07±0.0 %ID/g, the “Biodistribution, spleen” value ([2]; 5 min post-injection) was 4.62±0.6 %ID/g and the “Biodistribution, Blood” value ([2]; 15 min post-injection) was 0.34±0.1 %ID/g. The “Biodistribution, Bone” value ([2]; 15 min post-injection) was 0.35±0.1 %ID/g, the “Biodistribution, Brain” value ([2]; 15 min post-injection) was 0.39±0.0 %ID/g and the “Biodistribution, Duodenum” value ([2]; 15 min post-injection) was 1.37±0.1 %ID/g. The “Biodistribution, Heart” value ([2]; 15 min post-injection) was 4.57±0.2 %ID/g, the “Biodistribution, Kidney” value ([2]; 15 min post-injection) was 4.31±0.5 %ID/g and the “Biodistribution, Liver” value ([2]; 15 min post-injection) was 1.69 ± 0.2 %ID/g. For the same compound, the “Biodistribution, Lungs” value ([2]; 15 min post-injection) was 24.03±7. %ID/g, the “Biodistribution, Skin” value ([2]; 15 min post-injection) was 0.10±0.0 %ID/g and the “Biodistribution, Small intestine” value ([2]; 15 min post-injection) was 0.77±0.3 %ID/g. The “Biodistribution, Tail” value ([2]; 15 min post-injection) was 1.18±0.1 %ID/g, the “Biodistribution, Urine” value ([2]; 15 min post-injection) was 0.02±0.0 %ID/g and the “Biodistribution, muscle” value ([2]; 15 min post-injection) was 0.10±0.0 %ID/g. For the same compound, the “Biodistribution, spleen” value ([2]; 15 min post-injection) was 5.88±1.8 %ID/g, the “Biodistribution, Blood” value ([2]; 45 min post-injection) was 0.27 ± 0.01 %ID/g and the “Biodistribution, Bone” value ([2]; 45 min post-injection) was 0.26±0.1 %ID/g. The “Biodistribution, Brain” value ([2]; 45 min post-injection) was 0.34 ± 0.1 %ID/g, the “Biodistribution, Duodenum” value ([2]; 45 min post-injection) was 1.51±0.1 %ID/g and the “Biodistribution, Heart” value ([2]; 45 min post-injection) was 4.28±0.3 %ID/g. The “Biodistribution, Kidney” value ([2]; 45 min post-injection) was 4.20±0.6 %ID/g, the “Biodistribution, Liver” value ([2]; 45 min post-injection) was 1.68±0.3 %ID/g and the “Biodistribution, Lungs” value ([2]; 45 min post-injection) was 16.13±3.5 %ID/g. For the same compound, the “Biodistribution, Skin” value ([2]; 45 min post-injection) was 0.12±0.04 %ID/g, the “Biodistribution, Small intestine” value ([2]; 45 min post-injection) was 1.18±0.2 %ID/g and the “Biodistribution, Tail” value ([2]; 45 min post-injection) was 1.33±0.7 %ID/g. For the same compound, the “Biodistribution, Urine” value ([2]; 45 min post-injection) was 0.23±0.3 %ID/g, the “Biodistribution, muscle” value ([2]; 45 min post-injection) was 0.12±0.03 %ID/g and the “Biodistribution, spleen” value ([2]; 45 min post-injection) was 6.66±1.2 %ID/g. The “Brain, Parent (intact tracer)” value ([3]; 5 min post-injection) was 99.7 ± 0.1%, the “Plasma, Parent (Intact tracer)” value ([3]; 5 min post-injection) was 87.9 ± 2.4% and the “Brain, Parent (intact tracer)” value ([3]; 15 min post-injection) was 99.6 ± 0.3%. For the same compound, the “Plasma, Parent (Intact tracer)” value ([3]; 15 min post-injection) was 85.5 ± 3.2%, the “Brain, Parent (intact tracer)” value ([3]; 45 min post-injection) was 98.9 ± 0.9% and the “Plasma, Parent (Intact tracer)” value ([3]; 45 min post-injection) was 67.2 ± 2.9% and 67%.
For `CCN(CC)C(=O)Cc1c(-c2ccc(OCC[18F])cc2)nn2c(C)cc(C)nc12` [[^18F]DPA-714, reference compound], the “higher uptake … compared to CFA control” value [1] was 27%.
